# Results as given in patent US8608919B2, “Impedimetric sensor and applications thereof” (Consejo Superior de Investigaciones Científicas, priority 2007, dated 2013).
# Assays:
# Format in all cases: binding, rabbits of the New Zealand variety
# [1] = system: antiserums produced for sulphonamide-type antibiotics; test: Direct ELISA format with HRP enzymatic tracers of competition haptens (preliminary studies)
# Text: Biological molecular receptors (antibodies) were designed and produced to analyse antibiotics from the family of sulfamides. The preparation of the biological receptors was approached by means of the design of immunization haptens using molecular modelling strategies. As a consequence of these studies, the synthesis of 2 haptens or antigens was proposed. One of them (hapten 1) kept the greater part of the structure of the sulfamides, while the second (hapten 2) was only a fragment which conserved the part common to most of the compounds of this family of antibiotics. The two haptens were combined to the HCH (horseshoe crab hemocyanin) protein and to the BSA (bovine serum albumin) protein by using methods described in the literature. The covalent bonding of the haptens or antigens and the quantification of the number of the remainder of antigens bonded to the protein was carried out by means of a mass spectrometer. Following this, rabbits of the New Zealand variety were immunised with these antigens by applying a six-month long immunisation protocol, during which the progress of the immune response was controlled by means of extracting small blood samples.
# With the aim of evaluating the avidity of the antiserums produced by the sulphonamide-type antibiotics, it was necessary to establish a competitive-type immunochemical assay. […]
# [2] = system: specific sulfamide antiserum (#155); test: Impedimetric immunosensor of the invention, competitive immunoassay calibrated with sulfapyridine; settings: Sensor; [Ab] 1/2000; [AT] 0.8 μg/ml (2d-BSA); from four-parameter fit of calibration curve
# Experimental: Before proceeding to the functionalization, the electrodes were cleaned in a solution of 70% absolute ethanol and 30% Milli-Q water. Afterwards, the devices were submerged in a solution of 2.5% NaOH and Milli-Q water for 10 minutes, followed by a rinsing in 100 mL of Milli-Q water, in order to neutralize the action of the NaOH. Finally, the electrodes were cleaned in ethanol and dried in nitrogen current.
# The electrodes were introduced into a GPTS [(3-glycidoxipropil) trimethoxisilane] solution with 2.5% ethanol anhydride for three hours, at ambient temperature and with orbital agitation. After this time had passed, the devices were washed in ethanol and dried in nitrogen current. […]
# Biological molecular receptors (antibodies) were designed and produced to analyse antibiotics from the family of sulfamides. […] The covalent bonding of the haptens or antigens and the quantification of the number of the remainder of antigens bonded to the protein was carried out by means of a mass spectrometer. […]
# Sulfapyridine pattern solutions prepared in PBST (0.64 nM-50000 nM, in PBST) were added to the electrodes (150 μL/electrode), followed by a solution with the specific sulfamide antiserum (#155) obtained (1/2000 in PBST, 150 μL/electrode). […] The reaction was measured in a low conductivity solution. […]
# [3] = system: specific sulfamide antiserum; test: ELISA immunoassay, calibration with sulfapyridine; settings: [Ab] 1/8000, [AT] 0.625 μg/ml, from four-parameter fit of calibration curve
Structure (SMILES),IC50 [1] [ng/mL],IC50 [2] [nM],IC50 [3] [nM]
Nc1ccc(S(=O)(=O)Nc2cnccn2)cc1 [sulfapyrazine],~9,,
Nc1ccc(S(=O)(=O)Nc2ccccn2)cc1 [sulfapyridine],,14,9.29
